Assay results as given in US10556943B2, “HLA-DR binding peptides and their uses” (priority 2007, dated 2020).
Read-outs that look alike come from different tables or passages of the source. Values belong to the compound of their own block, whether it stands above or below them. Ends that are not written are not given here.

Tests used:
purified HLA DRB1*0404 = target: T1, purified HLA DRB1*0404 (Homo sapiens, UniProt P01903+P01911, A100R/A169T/F76Y/I96L/K127E/L162R/M171V/N62H/P40V/Q125Y/R42H/S133A/S149N/S66Y/V209L/W38E); experiment: HLA-DR radioligand binding inhibition assay, DRB1*0404
T1 construct: MHC molecules utilized were purified from EBV transformed homozygous cell lines or single MHC allele transfected 721.221, C1R, or fibroblast lines; made in house; host or cells: EBV transformed homozygous cell lines or single MHC allele transfected 721.221, C1R, or fibroblast lines
Experimental: (§1) Fifteen distinct HLA-DR molecules were used in quantitative assays to measure the binding of peptides to solubilized HLA-DR molecules. […] Briefly, columns of inactivated Sepharose CL4B and Protein A Sepharose were used as pre-columns. HLA-DR molecules were captured by passage of lysates over LB3.1 monoclonal antibody (anti-HLA-DRA) columns. Antibody columns were washed with 10 mM Tris-HCL, pH8.0 with 1% (v/v) NP-40, followed by PBS containing 0.4% (w/v) n-octylglucoside. […] The pH was reduced to 8.0 and the eluates were concentrated by centrifugation in Centriprep 30 concentrators at 2000 rpm (Amicon, Beverly, Mass.).
(§2) Briefly, 1-10 nM of radiolabeled peptide was co-incubated for 2 days at either room temperature or 37° C. with 1 μM to 1 nM purified HLA-DR molecules in the presence of a cocktail of protease inhibitors. Assays were performed at various pH conditions, ranging from pH 4 to pH 7. […] After incubation, the percentage of HLA-DR-bound radioactivity is determined by capturing HLA-DR/peptide complexes on Optiplates (Packard Instruments, Meriden, Conn.) coated with the LB3.1 antibody and determining bound counts per minute using the TopCount microscintillation counter (Packard Instruments). […] Competitor peptides are tested in 2-4 complete, independent experiments, at concentrations ranging from 30 μg/mL to 300 pg/mL.

purified HLA DRB1*0101 = target: T2, purified HLA DRB1*0101 (Homo sapiens, UniProt P01903+P01911, A100R/D57E/F55L/F60I/F76Y/I96L/L162R/M171V/P40L/Q125E/R42F/V115G/Y59C); experiment: HLA-DR radioligand binding inhibition assay, DRB1*0101; conditions: read-out: IC50 to purified HLA DRB1*0101
T2 construct: MHC molecules utilized were purified from EBV transformed homozygous cell lines or single MHC allele transfected 721.221, C1R, or fibroblast lines; made in house; host or cells: EBV transformed homozygous cell lines or single MHC allele transfected 721.221, C1R, or fibroblast lines
Experimental: (§3) Fifteen distinct HLA-DR molecules were used in quantitative assays to measure the binding of peptides to solubilized HLA-DR molecules. […] Briefly, columns of inactivated Sepharose CL4B and Protein A Sepharose were used as pre-columns. HLA-DR molecules were captured by passage of lysates over LB3.1 monoclonal antibody (anti-HLA-DRA) columns. Antibody columns were washed with 10 mM Tris-HCL, pH8.0 with 1% (v/v) NP-40, followed by PBS containing 0.4% (w/v) n-octylglucoside.
(§4) Briefly, 1-10 nM of radiolabeled peptide was co-incubated for 2 days at either room temperature or 37° C. with 1 μM to 1 nM purified HLA-DR molecules in the presence of a cocktail of protease inhibitors. Assays were performed at various pH conditions, ranging from pH 4 to pH 7. […] After incubation, the percentage of HLA-DR-bound radioactivity is determined by capturing HLA-DR/peptide complexes on Optiplates (Packard Instruments, Meriden, Conn.) coated with the LB3.1 antibody and determining bound counts per minute using the TopCount microscintillation counter (Packard Instruments).

purified HLA DRB4*0101 = target: T3, purified HLA DRB4*0101 (Homo sapiens, UniProt P01903+P13762, G164S); experiment: HLA-DR radioligand binding inhibition assay, DRB4*0101
T3 construct: MHC molecules utilized were purified from EBV transformed homozygous cell lines or single MHC allele transfected 721.221, C1R, or fibroblast lines; made in house; host or cells: EBV transformed homozygous cell lines or single MHC allele transfected 721.221, C1R, or fibroblast lines
Experimental: as §1, §2

purified HLA DRB1*0401 = target: T4, purified HLA DRB1*0401 (Homo sapiens, UniProt P01903+P01911, A100K/A169T/F76Y/I96L/K127E/L162R/M171V/N62H/P40V/Q125Y/R42H/S133A/S149N/S66Y/V115G/V209L/W38E); experiment: HLA-DR radioligand binding inhibition assay, DRB1*0401
T4 construct: MHC molecules utilized were purified from EBV transformed homozygous cell lines or single MHC allele transfected 721.221, C1R, or fibroblast lines; made in house; host or cells: EBV transformed homozygous cell lines or single MHC allele transfected 721.221, C1R, or fibroblast lines
Experimental: as §1, §2

purified HLA DRB1*1101 = target: T5, purified HLA DRB1*1101 (Homo sapiens, UniProt P01903+P01911, A100R/A169T/A87E/I96F/K41T/L162R/M171V/P40S/Q125H/Q178H/Q39Y/Q99D/R42S/S66Y/T262R/V115G/W38E); experiment: HLA-DR radioligand binding inhibition assay, DRB1*1101
T5 construct: MHC molecules utilized were purified from EBV transformed homozygous cell lines or single MHC allele transfected 721.221, C1R, or fibroblast lines; made in house; host or cells: EBV transformed homozygous cell lines or single MHC allele transfected 721.221, C1R, or fibroblast lines
T5 sequence (P01903 26-254, other chains not shown): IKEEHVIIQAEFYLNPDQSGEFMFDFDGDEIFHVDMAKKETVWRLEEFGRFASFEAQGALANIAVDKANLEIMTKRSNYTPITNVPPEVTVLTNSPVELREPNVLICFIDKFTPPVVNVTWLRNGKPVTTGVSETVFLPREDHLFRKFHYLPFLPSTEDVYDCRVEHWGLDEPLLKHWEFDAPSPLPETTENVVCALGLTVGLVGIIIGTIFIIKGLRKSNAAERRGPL
Experimental: as §1, §2

purified HLA DRB3*0101 = target: T6, purified HLA DRB3*0101 (Homo sapiens, UniProt P01903+P79483); experiment: HLA-DR radioligand binding inhibition assay, DRB3*0101
T6 construct: MHC molecules utilized were purified from EBV transformed homozygous cell lines or single MHC allele transfected 721.221, C1R, or fibroblast lines; made in house; host or cells: EBV transformed homozygous cell lines or single MHC allele transfected 721.221, C1R, or fibroblast lines
Experimental: as §1, §2

purified HLA DRB1*1201 = target: T7, purified HLA DRB1*1201 (Homo sapiens, UniProt P01903+P01911, A100R/A169T/D57E/D86V/F55L/H45Y/K41T/L162R/M171V/P40S/Q125H/Q178H/Q39Y/Q99D/R42G/S66L/T262R/V114A/V67L/W38E/Y59H/Y61H/Y89S); experiment: HLA-DR radioligand binding inhibition assay, DRB1*1201; conditions: column 5 of second part of Table I
T7 construct: MHC molecules utilized were purified from EBV transformed homozygous cell lines or single MHC allele transfected 721.221, C1R, or fibroblast lines; made in house; host or cells: EBV transformed homozygous cell lines or single MHC allele transfected 721.221, C1R, or fibroblast lines
Experimental: as §1, §2

purified HLA DRB1*1302 = target: T8, purified HLA DRB1*1302 (Homo sapiens, UniProt P01903+P01911, A100E/A169T/K41T/L162R/M171V/P40S/Q125H/Q178H/Q39Y/Q99D/R42S/S66N/T262R/V115G/W38E/Y61H); experiment: HLA-DR radioligand binding inhibition assay, DRB1*1302; conditions: column 6 of second part of Table I
T8 construct: MHC molecules utilized were purified from EBV transformed homozygous cell lines or single MHC allele transfected 721.221, C1R, or fibroblast lines; made in house; host or cells: EBV transformed homozygous cell lines or single MHC allele transfected 721.221, C1R, or fibroblast lines
T8 sequence (P01903 26-254, other chains not shown): as above
Experimental: as §3, §4

purified HLA DRB1*0901 = target: T9, purified HLA DRB1*0901 (Homo sapiens, UniProt P01903+P01911, A100R/A103E/D57H/D86V/F55Y/F60I/F76Y/I96F/K127E/L162R/M171V/P40D/Q125H/Q99R/R33Q/R42F/S133A/S66N/T210M/V115G/W38K/Y107V/Y59G/Y89S); experiment: HLA-DR radioligand binding inhibition assay, DRB1*0901
T9 construct: MHC molecules utilized were purified from EBV transformed homozygous cell lines or single MHC allele transfected 721.221, C1R, or fibroblast lines; made in house; host or cells: EBV transformed homozygous cell lines or single MHC allele transfected 721.221, C1R, or fibroblast lines
Experimental: as §3, §4

purified HLA DRB5*0101 = target: T10, purified HLA DRB5*0101 (Homo sapiens, UniProt P01903+Q30154); experiment: HLA-DR radioligand binding inhibition assay, DRB5*0101
T10 construct: MHC molecules utilized were purified from EBV transformed homozygous cell lines or single MHC allele transfected 721.221, C1R, or fibroblast lines; made in house; host or cells: EBV transformed homozygous cell lines or single MHC allele transfected 721.221, C1R, or fibroblast lines
Experimental: as §1, §2

purified HLA DRB1*0701 = target: T11, purified HLA DRB1*0701 (Homo sapiens, UniProt P01903+P01911, A100R/A102G/A103Q/D57E/D86V/E43K/F76Y/K127E/L162R/M171V/P40G/Q125H/Q99D/R33Q/R42Y/R54Q/S133A/S66F/T210M/V115G/Y107V/Y59L/Y89S); experiment: HLA-DR radioligand binding inhibition assay, DRB1*0701
T11 construct: MHC molecules utilized were purified from EBV transformed homozygous cell lines or single MHC allele transfected 721.221, C1R, or fibroblast lines; made in house; host or cells: EBV transformed homozygous cell lines or single MHC allele transfected 721.221, C1R, or fibroblast lines
Experimental: as §3, §4

Compound: CC[C@H](C)[C@H](N)C(=O)N[C@@H](CS)C(=O)N[C@H](C(=O)N[C@H](C(=O)N[C@@H](CC(=O)O)C(=O)N[C@H](C(=O)N[C@@H](Cc1ccc(O)cc1)C(=O)N[C@@H](CCSC)C(=O)N[C@H](C(=O)N[C@@H](CCSC)C(=O)N[C@H](C(=O)N[C@@H](CCCCN)C(=O)N[C@@H](CS)C(=O)N[C@@H](Cc1c[nH]c2ccccc12)C(=O)N[C@@H](CCSC)C(=O)O)C(C)C)[C@@H](C)CC)C(C)C)[C@@H](C)CC)[C@@H](C)O [Peptide 1622.04]
- IC50 (purified HLA DRB1*0404; read-out: IC50 to purified HLA DRB1*0404, purified HLA DRB1*0404): > 20 µM
- IC50 (purified HLA DRB1*0101): > 20 µM

Compound: CSCC[C@H](NC(=O)[C@H](CC(C)C)NC(=O)[C@H](CCC(=O)O)NC(=O)[C@H](Cc1c[nH]c2ccccc12)NC(=O)[C@@H](NC(=O)[C@@H](NC(=O)[C@@H](NC(=O)CNC(=O)[C@H](Cc1ccc(O)cc1)NC(=O)[C@H](CO)NC(=O)[C@H](Cc1c[nH]c2ccccc12)NC(=O)[C@@H](NC(=O)[C@H](CC(=O)O)NC(=O)[C@@H](N)CO)C(C)C)C(C)C)[C@@H](C)O)C(C)C)C(=O)N[C@H](C(=O)O)[C@@H](C)O [Peptide 9019.0089]
- IC50 (purified HLA DRB4*0101): > 20 µM

Compound: CC[C@H](C)[C@H](NC(=O)CNC(=O)[C@H](CC(=O)O)NC(=O)[C@H](Cc1ccc(O)cc1)NC(=O)[C@@H]1CCCN1C(=O)[C@H](CCCCN)NC(=O)[C@H](C)N)C(=O)N1CCC[C@H]1C(=O)N[C@@H](C)C(=O)N[C@@H](CCCNC(=N)N)C(=O)N[C@@H](CCC(=O)O)C(=O)N[C@H](C(=O)N1CCC[C@H]1C(=O)N[C@@H](CC(=O)O)C(=O)N[C@@H](CC(C)C)C(=O)O)[C@@H](C)CC [Peptide 9019.0092]
- IC50 (purified HLA DRB4*0101): > 20 µM
- IC50 (purified HLA DRB1*0404): > 20 µM
- IC50 (purified HLA DRB1*0401): > 20 µM
- IC50 (purified HLA DRB1*1101): > 20 µM

Compound: CSCC[C@H](NC(=O)[C@H](CCCNC(=N)N)NC(=O)[C@H](CO)NC(=O)[C@H](Cc1ccccc1)NC(=O)[C@H](CCC(=O)O)NC(=O)[C@H](CO)NC(=O)[C@@H](NC(=O)[C@H](CC(C)C)NC(=O)[C@H](CCC(=O)O)NC(=O)[C@H](CCCNC(=N)N)NC(=O)[C@H](Cc1ccccc1)NC(=O)[C@H](CCCNC(=N)N)NC(=O)[C@@H]1CCCN1C(=O)[C@@H](N)CCCNC(=N)N)C(C)C)C(=O)N[C@@H](C)C(=O)O [Peptide 9019.0095]
- IC50 (purified HLA DRB3*0101): > 20 µM

Compound: CSCC[C@H](NC(=O)[C@H](CCCNC(=N)N)NC(=O)[C@H](CO)NC(=O)[C@H](Cc1ccccc1)NC(=O)[C@H](CCC(=O)O)NC(=O)[C@H](CO)NC(=O)[C@@H](NC(=O)[C@H](CC(C)C)NC(=O)[C@H](CCC(=O)O)NC(=O)[C@H](CCCNC(=N)N)NC(=O)[C@@H](N)Cc1ccccc1)C(C)C)C(=O)N[C@@H](C)C(=O)N[C@@H](CCCNC(=N)N)C(=O)N[C@@H](CC(=O)O)C(=O)N1CCC[C@H]1C(=O)O [Peptide 9019.0096]
- IC50 (purified HLA DRB1*1201): > 20 µM
- IC50 (purified HLA DRB1*1302): > 20 µM
- IC50 (purified HLA DRB1*0901): > 20 µM

More lines, now with the values ahead:

- IC50 (purified HLA DRB1*0404): > 20 µM
- IC50 (purified HLA DRB1*1101): > 20 µM
- IC50 (purified HLA DRB5*0101): 17 µM
Compound: CC[C@H](C)[C@H](NC(=O)[C@H](CCCCN)NC(=O)[C@H](CCCNC(=N)N)NC(=O)[C@@H](N)CCSC)C(=O)N[C@H](C(=O)N[C@@H](C)C(=O)N[C@H](C(=O)N[C@@H](Cc1c[nH]c2ccccc12)C(=O)N[C@@H](CCSC)C(=O)N[C@@H](CC(C)C)C(=O)N[C@@H](CCC(=O)O)C(=O)N[C@H](C(=O)N[C@@H](CS)C(=O)N[C@@H](CCC(=O)O)C(=O)N[C@@H](CCC(=O)O)C(=O)O)C(C)C)[C@@H](C)O)C(C)C [Peptide 9019.0151]

- IC50 (purified HLA DRB1*1302): > 20 µM
- IC50 (purified HLA DRB1*0701): > 20 µM
Compound: KELAVFREKVTEQHR [Peptide 9019.0186]
